# Data taken from US8329141B2, “Locoregional internal radionuclide ablation of abnormal tissues” (Board of Regents, The University of Texas System, priority 2004, dated 2012).
# Tests used:
# [1] = intravenous (Hirano et al. 1993); cited from earlier work
# [2] = intratracheal instillation (Hirano et al. 1990); cited from earlier work
# [3] = system: CSF proteins; test: Binding to CSF proteins (Centrifree filter separation); assay type: in vitro ADME, human (patients); conditions: 0.2, 0.5 or 1 μCi added to diluted CSF, 20 minutes; physiologic range, all concentrations tested
# Protocol: To test the hypothesis that local sequestration of ^111In—Cl is due to protein binding, both ^111In—Cl and YCl3 were tested for binding to CSF and serum proteins. Serum proteins were obtained from residual baseline serum and CSF proteins were obtained from patients participating in other research protocols who had consented to blood sampling. To determine the level of ^111In—Cl protein binding, 0.2, 0.5, or 1 μCi of ^111In—Cl was added to diluted CSF (0.125 or 0.5) or diluted serum protein (0.125 and 0.25) and incubated for 20 minutes. To determine the level of YCl3 protein binding, 0.2, 0.5, or 1 μCi of YCl3 was added to diluted CSF (0.063 or 0.5) or diluted serum protein (0.063 and 0.375), and incubated for 20 minutes. After incubation, free radiopharmaceuticals were separated from protein bound ^111In—Cl or YCl3 using Amicon Centrifree Micropartition filters in a single centrifugation step at 3000 g for 15 minutes according to manufacturer's instructions (Amicon, Beverly, Mass.). The percent binding of YCl3 or ^111In—Cl to the CSF or serum protein was then calculated. As shown in FIG. 6 and FIG. 7 respectively, both YCl3 and ^111In—Cl bind avidly to CSF and serum protein within the physiologic range (a dilution factor between 0.2 and 0.6) at all concentrations tested. At room temperature, both YCl3 and ^111In—Cl have greater than 95% binding to serum proteins.
# [4] = system: rat mammary cancer 13762F tumor cells; test: In vivo tumor growth after intratumoral injection of radiopharmaceuticals (rat mammary cancer model); design: species or system Fischer 344 female rats
# Protocol: The radionuclides YCl3, ^111In—Cl, and ^201Tl—Cl were obtained from a local supplier of radioisotopes, Iso-Tex Diagnostics (Friendswood, Tex.). YCl3 obtained from the supplier was in an acidic preparation with a pH of 2-3, and was subsequently diluted in saline to a final pH of about 4-6 before injection. Initial activities of ^111In—Cl and YCl3 were about 200-500 mCi/ml, and dilution were made with preservative-free saline. YIMA was prepared by co-precipitation, as set forth in U.S. Ser. No. 10/724,027. Briefly, 500 μl of FeCl3 (1 mg Fe/ml) was added to 30 μl of ^90Y chloride (20-40 μCi/30 μl), and either 30 μl of NaOH (1.0 N) or 10 μl of NH4OH (20.0%) was added to the solution to reach a pH of about 7.0 to 9.0. Co-precipitated YIMA radiopharmaceutical macroaggregates were then separated from remaining soluble radionuclides by centrifuging the reactions from 1500 RPM to 3000 RPM×5 minutes, and filtered using a Millipore Nylone (size: 0.45 μm, diameter: 13 mm) to isolate the radiopharmaceutical macroaggregates.
# The rat model of in vivo tumor growth was generated as follows. On day zero, 100,000 rat mammary cancer 13762F tumor cells were implanted in a volume of 0.15 ml into the right thigh muscle of Fischer 344 female rats weighing approximately 160 grams. […] YIMA was injected in a volume of 0.2 ml on days 3-7 after tumor implantation. Tumor sizes and body weights of the rats were monitored regularly (5 times a week) for several weeks, or until the tumors grew beyond 2.5 cm, at which time the rats were euthanized.
# [5] = Biodistribution and projected human radiation dosimetry after intravenous or intramuscular injection; assay type: in vivo, female Fisher rats; conditions: for human dosimetry estimate, kidney / human dosimetry estimate, red marrow: from rat biodistribution
# Protocol: To evaluate the radiation toxicity of YCl3 after intravenous or intramuscular injection, parallel experiments were performed to evaluate the biodistribution and projected human radiation dosimetry of both ^111In—Cl and YCl3. The experiments used three female Fisher rats (140-160 grams) for each set of injections. Each rat was injected intravenously, or was injected intramuscularly in the right thigh, with 0.05 mCi of YCl3 or ^111In—Cl (with no carrier added) in 0.1 ml saline (pH 5-6). The effect of initial exposure of the radiopharmaceuticals to interstitial fluid was estimated by serum protein binding experiments using Millipore Centrifree filters as set forth in Example 2. Organs including the right and left femur, as well as the right and left thigh muscles, were harvested from each rat 7 days after injection. Human dosimetry for each radiopharmaceutical was constructed using established anthropomorphic models.
# [6] = system: serum proteins; test: Binding to serum proteins (Centrifree filter separation); assay type: in vitro ADME, human (patients); conditions: 0.2, 0.5 or 1 μCi added to diluted serum protein, 20 minutes; physiologic range, all concentrations tested
# Protocol: To test the hypothesis that local sequestration of ^111In—Cl is due to protein binding, both ^111In—Cl and YCl3 were tested for binding to CSF and serum proteins. Serum proteins were obtained from residual baseline serum and CSF proteins were obtained from patients participating in other research protocols who had consented to blood sampling. To determine the level of ^111In—Cl protein binding, 0.2, 0.5, or 1 μCi of ^111In—Cl was added to diluted CSF (0.125 or 0.5) or diluted serum protein (0.125 and 0.25) and incubated for 20 minutes. To determine the level of YCl3 protein binding, 0.2, 0.5, or 1 μCi of YCl3 was added to diluted CSF (0.063 or 0.5) or diluted serum protein (0.063 and 0.375), and incubated for 20 minutes. After incubation, free radiopharmaceuticals were separated from protein bound ^111In—Cl or YCl3 using Amicon Centrifree Micropartition filters in a single centrifugation step at 3000 g for 15 minutes according to manufacturer's instructions (Amicon, Beverly, Mass.). The percent binding of YCl3 or ^111In—Cl to the CSF or serum protein was then calculated. As shown in FIG. 6 and FIG. 7 respectively, both YCl3 and ^111In—Cl bind avidly to CSF and serum protein within the physiologic range (a dilution factor between 0.2 and 0.6) at all concentrations tested. At room temperature, both YCl3 and ^111In—Cl have greater than 95% binding to serum proteins. […]
# [7] = locoregional administration in rats
smiles,measurement,setting,value
"[Cl][90Y]([Cl])[Cl] [YCl3, Yttrium-90 chloride]",formation of colloidal material in blood plasma,[1],dose-dependent formation of colloidal material
same,primary target organs,[1],liver and spleen
same,pulmonary retention half-life,[2],169 days
same,binding to CSF,[3],bind avidly
same,tumor development,"[4]; 1 mCi intratumoral on day 10 in 0.1-0.2 ml saline, FIG. 2",significantly suppressed
same,tumor growth,"[4]; 100 μCi intratumoral on day 10 in 0.1-0.2 ml saline, FIG. 2",not significantly suppressed
same,tumor development,"[4]; 200 μCi intratumoral on day 10 in 0.1-0.2 ml saline, FIG. 2",significantly suppressed
same,tumor development,"[4]; 500 μCi intratumoral on day 10 in 0.1-0.2 ml saline, FIG. 2",significantly suppressed
same,tumor growth,"[4]; FIG. 3, in 0.2-0.3 ml saline, YCl3 0.3, 0.6, 1.5 mCi, ^111In—Cl 0.6, 1.2, 2.4, 4.8 mCi, ^67Ga 0.6 mCi",significantly suppressed tumor growth
same,tumor growth,"[4]; FIG. 4, in 0.5 ml saline, YCl3 0.5, 1.0, 2.0 mCi, ^111In—Cl 1.0, 4.0 mCi, FDG 1.0, 2.0, 3.0 mCi, ^67Ga—Fe 1.77 mCi",significantly suppressed tumor growth
same,tumor growth,"[4]; at least 200 μCi intratumoral, FIG. 2",clearly suppressed
same,dose equivalent for humans at which mortality occurred,[4]; [7],350 mCi/70 Kg
same,lowest dose with consistently observed local tumor suppression effects,[4]; [7],0.2 mCi
same,mortality after locoregional administration,"[4]; rats, sporadically, at high dose equivalents for humans (e.g., 350 mCi/70 Kg)",some mortality was observed
same,skeletal distribution,[5]; estimated from the left femur (opposite to the injection site),about 16%
same,radiation uptake in the right thigh muscle,[5]; intramuscular injection in right thigh,high
same,radiation uptake in right femur versus contralateral organ,"[5]; intramuscular injection in right thigh, decreasing over time to",3 times higher
same,radiation uptake in right femur versus contralateral organ,"[5]; intramuscular injection in right thigh, initial",6 times higher
same,"human dosimetry estimate, kidney",[5]; intramuscular,1.47 cGy/mCi
same,"human dosimetry estimate, red marrow",[5]; intramuscular,0.65 cGy/mCi
same,organs with the highest uptake,"[5]; intravenous injection, 0.05 mCi in 0.1 ml saline","spleen, liver, and kidney"
same,"human dosimetry estimate, kidney",[5]; intravenous,13.1 cGy/mCi
same,"human dosimetry estimate, red marrow",[5]; intravenous,5.77 cGy/mCi
same,binding to serum protein,[6],bind avidly
